Structures are written as SMILES.

In assay [1] the test system is NF-κB driven transcription (pTRH1-NF-κB-dscGFP reporter, 293 cells). The assay can be described thus: NF-kB/293/GFP reporter cell assay. The format is cell-based. To be noted: Homo sapiens, HEK293; compound 2 hours, then 20 ng/ml TNF-α for 18 hours; fluorescence. The method, then:
Two reporter cell assays were used to determine the ability of the compounds of Examples 1-12 to inhibit NF-κB driven transcription. The first assay was a 293-cell based assay with a stably integrated pNF-κB-luc reporter plasmid containing 3 NF-κB promoter elements. The second assay was a 293-cell based assay with a stably integrated pTRH1-NF-κB-dscGFP reporter containing 4 NF-κB promoter elements. Cells were treated with 0, 0.2, 1, 10, 20 and 40 μM of the compounds of Example 1-12 for 2 hours then were induced with 20 ng/ml TNF-α for 18 hours. Following the induction, luminescence or fluorescence was quantified using a Beckman-Coulter 2300 plate reader. […] As a control, 0.5% DMSO treated and untreated cells were compared to verify that the compounds of Examples 1-12 had no effect on the expression of luciferase or in the readout of the assay. There was a slight decrease in the output from the assay in the DMSO treated population although it was not statistically significant. As a result of the controls, the decrease in activity in the drug treated samples was compared to the DMSO control sample.

In a further assay the test system is PGE2. Description: Inhibition of PGE2 release in LPS-stimulated RAW 264.7 cells. The format is cell-based. The following applies: Mus musculus, RAW264.7; pretreated 2 hours, 1 μg/mL LPS 20-24 hours. The method, then:
RAW 264.7 cells were seeded at 4×10^4 cells per well in complete growth medium in 96 well white TC plates with clear bottoms one day prior to the assay. The next day the cells were washed once and 100 μL fresh growth media was added. Cells were pretreated with 0.5 μL from a 6 point 200× dilution series of the test compounds in DMSO for 2 hours. Following pretreatment with the drugs, the inflammatory response was induced by adding 5 μL of a 20 μg/mL solution of LPS (Sigma). The cells were incubated in the presence of the drugs and 1 μg/mL LPS for another 20-24 hours. Typically after treatment the total DMSO was […] of the culture volume and the final concentrations of the compounds were approximately: 40, 20, 10, 1, 0.2 and 0 μM depending on the MW of each compound. Modified dilution series were prepared as needed to get adequate dose response curves without changing the % DMSO. Samples were run in duplicate or triplicate and included DMSO treated control wells with and without LPS stimulation. Drugs with a known activity such as Parthenolide or DHMEQ were run as experimental controls. After 20-24 hours LPS activation, the media supernatant was collected from the cells and replaced with fresh media. The supernatant samples were cleared by centrifugation at 1,000×g for 5 minutes, transferred to fresh storage plates, and stored frozen at −30° C.
After determining the appropriate supernatant dilutions experimentally, PGE2 levels in the supernatants were quantified using Parameter™ PGE2 Immunoassay (R&D Systems) according to the manufacturer's protocol. […] Absorbance at 450 nm with a reference at 595 nm was recorded using a Becton-Dickinson DTX 880 Multimode Detector.
The concentration of PGE2 in the unknown samples was determined from a curve-fit of the PGE2 standard absorbance data and multiplying by the dilution factor. […] Inhibition of the amount of PGE2 released in the drug treated wells was calculated relative to the maximum activation in the DMSO+LPS treated control wells (i.e., % inhibition=100−(drug+LPS treated)/(DMSO+LPS treated)). […]

For `CC(C)CC(=O)Oc1ccccc1C(=O)NC1=CC(=O)C2OC2C1O` (racemic) [Example 1, (±)-2-(2-hydroxy-5-oxo-7-oxabicyclo[4.1.0]hept-3-en-3-ylcarbamoyl)phenyl 3-methylbutanoate], the EC50 in assay [1] came out at 11 µM; in the assay on PGE2 it was 1.9 µM.
`CC(C)OC(=O)Oc1ccccc1C(=O)NC1=CC(=O)C2OC2C1OC(=O)OC(C)C` (racemic) [Example 2, (±)-3-(2-isopropoxycarbonyloxy-benzoylamino)-5-oxo-7-oxa-bicyclo[4.1.0]hept-3-en-2-yl ester isopropyl ester]: the EC50 with PGE2 is 2.7 µM.
On to `O=C(CC1CCCCC1)Oc1ccccc1C(=O)NC1=CC(=O)C2OC2C1O` (racemic) [Example 3, (±)-2-(2-hydroxy-5-oxo-7-oxabicyclo[4.1.0]hept-3-en-3-ylcarbamoyl)phenyl 2-cyclohexylacetate], for which the EC50 amounted to 10 µM in assay [1] and 1.1 µM in the assay on PGE2.
For the molecule `CCCC(C)C(=O)Oc1ccccc1C(=O)NC1=CC(=O)C2OC2C1O` (racemic) [Example 4, (±)-2-(2-hydroxy-5-oxo-7-oxabicyclo[4.1.0]hept-3-en-3-ylcarbamoyl)phenyl 2-methylpentanoate], the EC50 in assay [1] is 17 µM.
Still for that read-out and setting: under `CCCCC(CC)C(=O)Oc1ccccc1C(=O)NC1=CC(=O)C2OC2C1O` (racemic) [Example 5, (±)-2-(2-hydroxy-5-oxo-7-oxabicyclo[4.1.0]hept-3-en-3-ylcarbamoyl)phenyl 2-ethylhexanoate] stands 6.7 µM; under `CC(C)(C)CC(=O)Oc1ccccc1C(=O)NC1=CC(=O)C2OC2C1O` (racemic) [Example 6, (±)-2-(2-hydroxy-5-oxo-7-oxabicyclo[4.1.0]hept-3-en-3-ylcarbamoyl)phenyl 3,3-dimethylbutanoate], 10 µM.
For `CC(C)OC(=O)Oc1ccccc1C(=O)NC1=CC(=O)C2OC2C1O` (racemic) [Example 7, (±)-2-(2-hydroxy-5-oxo-7-oxabicyclo[4.1.0]hept-3-en-3-ylcarbamoyl)phenyl isopropyl carbonate], it took 8.4 µM to reach a half-maximal effect in assay [1] (EC50).
Same read-out and setting: the figure for `CC(C)OC(=O)OC1C(NC(=O)c2ccccc2O)=CC(=O)C2OC21` (racemic) [Example 8] is 14 µM.

Broadly, the EC50 is the midpoint of the concentration-response curve.

The record behind these values is US20120088827A1 (Profectus Biosciences, Inc., priority 2009, published 2012).
